1 molecule from patent publication US12357619B2, “Noradrenergic and specific serotonergic anxiolytic and antidepressant, method for the production and use thereof” (ALLA CHEM, LLC, priority 2020, dated 2025) can be followed below.

In data set [1] the test system is people with generalized anxiety disorder (GAD). As to the kind of experiment: Randomized double-blind placebo-controlled GAD study, clinical global impression-improvement (CGI-I). The settings on record: after 8 weeks. The data set is classed as in vivo, human. The procedure: (§1) Example 12. Efficacy and safety study of the oral drug of this invention made as a pharmaceutical composition of this invention in capsules. […] During the study, 3 scheduled visits were conducted in Week 2, Week 4, and Week 8 to assess the effectiveness and safety of the therapy as well as drug inventory and administration. During all of those visits, the patient's diary was checked, a drug inventory was made and the patients' compliance was assessed. In addition, adverse events, concomitant therapy, and vital signs were evaluated, urine drug screen was performed, and assessments using Hamilton Anxiety Rating Scale (HARS), Hamilton Depression Scale (HAMD), Clinical Global Impression-Severity (CGI-S), Clinical Global Impression-Improvement (CGI-I), and Visual Analog Scale (VAS) were made; women of child-bearing potential will take a urine pregnancy test. Also, during visits at Week 4 and Week 8 a physical examination was performed, body weight was measured, an ECG was performed in 12 leads and blood and urine samples were obtained for laboratory tests, namely: urinalysis and biochemical blood analysis, PK analysis before and 1 hour after taking the study drug (SD), and urinalysis. At Week 4, a blood sample was also obtained for genotyping by CYP2D6. […] During this time, a possible development of SD withdrawal syndrome against the background of placebo was evaluated. […]

Data set [2] concerns the target T1, Adrenergic α2A (Homo sapiens, UniProt P08913).
T1 sequence (P08913 1-465): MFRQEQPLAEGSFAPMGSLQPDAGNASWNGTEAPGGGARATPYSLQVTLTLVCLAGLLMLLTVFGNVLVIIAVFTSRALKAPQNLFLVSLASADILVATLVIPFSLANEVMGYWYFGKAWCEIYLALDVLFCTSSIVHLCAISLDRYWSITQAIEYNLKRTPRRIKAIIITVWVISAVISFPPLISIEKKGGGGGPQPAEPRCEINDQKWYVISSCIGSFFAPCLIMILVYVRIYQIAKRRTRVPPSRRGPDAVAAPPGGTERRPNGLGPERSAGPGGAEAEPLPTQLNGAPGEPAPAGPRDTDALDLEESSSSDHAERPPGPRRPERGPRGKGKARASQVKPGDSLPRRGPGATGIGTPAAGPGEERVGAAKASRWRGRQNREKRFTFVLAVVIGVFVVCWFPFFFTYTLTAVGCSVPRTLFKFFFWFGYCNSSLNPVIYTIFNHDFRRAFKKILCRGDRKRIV
As to the kind of experiment: Receptor activities, Ki (Table 1). The data set is classed as binding.

Data set [3] has as its target T2, Serotonin 5-HT2C (Homo sapiens, UniProt P28335).
T2 sequence (P28335 33-458): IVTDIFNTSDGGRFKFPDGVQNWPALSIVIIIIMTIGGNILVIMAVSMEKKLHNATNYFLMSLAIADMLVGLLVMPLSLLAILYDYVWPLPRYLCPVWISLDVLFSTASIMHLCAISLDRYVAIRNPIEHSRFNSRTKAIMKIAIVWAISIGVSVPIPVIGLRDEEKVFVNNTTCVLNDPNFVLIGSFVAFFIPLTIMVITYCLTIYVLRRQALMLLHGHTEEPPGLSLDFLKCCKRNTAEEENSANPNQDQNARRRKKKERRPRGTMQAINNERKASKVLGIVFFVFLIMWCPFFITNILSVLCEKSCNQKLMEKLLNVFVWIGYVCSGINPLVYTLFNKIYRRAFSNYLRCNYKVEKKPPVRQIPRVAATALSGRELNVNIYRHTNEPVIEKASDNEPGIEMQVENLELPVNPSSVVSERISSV
As to the kind of experiment: Receptor activities, Ki (Table 1). The data set is classed as binding.

Data set [4] in a line: Pharmacokinetics, single and multiple dosing of capsules in volunteers (Example 11). The data set is classed as in vivo, human. The settings on record: for half-life / Tmax: human, in vivo, oral. The procedure: Example 11. Safety study of increasing doses of the oral drug of this invention made as a pharmaceutical composition of this invention in capsules. Clinical safety study of increasing doses of the antipsychotic drug made as a pharmaceutical composition of this invention in capsules for single and multiple dosing. The study covered one cohort of 4 volunteers taking antipsychotic drug once at a dose of 20 mg, and then at the same dose 2 times a day for 4 days. Based on the three-week safety data obtained in the 20-mg cohort taking antipsychotic drug twice a day, the independent safety data monitoring Committee took a decision to involve a second cohort of 4 volunteers, in which the antipsychotic drug under test was taken once at a dose of 20 mg and then 3 times a day for 4 days at the same dose.

Data set [5] concerns the target Serotonin 5-HT7 (Homo sapiens, UniProt P34969). As to the kind of experiment: Receptor activities, Ki (Table 1). The data set is classed as binding.
Data set [6] deals with T3, Serotonin 5-HT1A (Homo sapiens, UniProt P08908).
T3 sequence (P08908 1-422): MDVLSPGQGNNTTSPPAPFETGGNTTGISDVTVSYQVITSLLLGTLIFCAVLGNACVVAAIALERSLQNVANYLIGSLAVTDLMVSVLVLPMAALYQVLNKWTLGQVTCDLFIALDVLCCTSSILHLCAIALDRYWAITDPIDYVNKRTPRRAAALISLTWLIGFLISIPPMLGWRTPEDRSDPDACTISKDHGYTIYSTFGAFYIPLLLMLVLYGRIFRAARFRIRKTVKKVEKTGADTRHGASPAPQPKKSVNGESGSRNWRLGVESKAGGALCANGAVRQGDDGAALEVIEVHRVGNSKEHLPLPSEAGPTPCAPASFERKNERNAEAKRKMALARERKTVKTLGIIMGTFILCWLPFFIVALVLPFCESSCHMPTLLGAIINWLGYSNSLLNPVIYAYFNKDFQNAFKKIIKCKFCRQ
As to the kind of experiment: Receptor activities, Ki (Table 1). The data set is classed as binding.

For data set [7], the system named is people with generalized anxiety disorder (GAD). The data set is described as follows: Randomized double-blind placebo-controlled GAD study, clinical global impression-severity (CGI-S). The data set is classed as in vivo, human. The settings on record: after 8 weeks. The procedure:
as §1

Read-outs that look alike come from different tables or passages of the source.

In general, Ki refers to the equilibrium dissociation constant of an inhibitor or competing ligand from its target. Read a high Ki as a looser hold on the target. For orientation: half-life means the time in which the quantity being followed falls by half. A higher half-life goes with slow decline. Usually Tmax stands for the time at which the peak concentration occurs.

Serotonin 5-HT7, sequence (P34969 whole entry): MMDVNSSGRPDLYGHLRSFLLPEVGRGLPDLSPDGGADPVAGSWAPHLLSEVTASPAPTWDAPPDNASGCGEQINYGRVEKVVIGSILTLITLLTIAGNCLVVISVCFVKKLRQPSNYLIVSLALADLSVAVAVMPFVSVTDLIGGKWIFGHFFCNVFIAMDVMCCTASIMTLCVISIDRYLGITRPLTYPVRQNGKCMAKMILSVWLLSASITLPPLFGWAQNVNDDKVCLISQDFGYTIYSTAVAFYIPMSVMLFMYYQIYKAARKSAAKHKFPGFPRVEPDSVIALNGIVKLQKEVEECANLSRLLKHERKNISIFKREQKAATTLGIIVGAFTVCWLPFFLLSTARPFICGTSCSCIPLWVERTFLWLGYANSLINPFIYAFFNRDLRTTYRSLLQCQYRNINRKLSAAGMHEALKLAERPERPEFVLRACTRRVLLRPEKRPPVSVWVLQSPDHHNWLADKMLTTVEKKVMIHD

Regarding `Cc1ccc2c(c1)c1c(n2CCc2ccccc2)CCN(C)C1.Cl` [A•HCl, 2,8-dimethyl-5-(2-phenylethyl)-2,3,4,5-tetrahydro-1H-pyrido[4,3-b]indole hydrochloride], the “CGI-I average change (standard error)” value in data set [1] (40 mg, N = 42, average at Week 0 4.00) is on record as −1.63 (0.14); in data set [1] (60 mg, N = 44, average at Week 0 4.03), −1.68 (0.14). The Ki in data set [2] amounted to 1.77 nM; in data set [3], 1.17 nM; in data set [5] it was 0.153 nM; in data set [6], 61 nM. For the same molecule, the “Accumulation factor (Fc)” value in data set [4] (40-mg cohort) was 2.5; in data set [4] (60-mg cohort), 2.1. Moreover, the half-life in data set [4] (20 mg, single dose, 40-mg cohort) is 618 ± 324 min; in data set [4] (20 mg, single dose, 60-mg cohort) it was 438 ± 156 min. For the same molecule, the Tmax was 45 min in data set [4] (20 mg, single dose, 40-mg cohort, read-out: Tmax, median); 138 min in data set [4] (20 mg, single dose, 60-mg cohort, read-out: Tmax, median); 30 to 240 min in data set [4] (20 mg, single dose, majority of volunteers, read-out: Tmax, variation); 22.8 min in data set [4] (40 mg/day, repeated doses, 40-mg cohort, read-out: Tmax, median); 60 min in data set [4] (60 mg/day, repeated doses, 60-mg cohort, read-out: Tmax, median). The “Time to stabilization of the residual concentration after the start of regular drug administration” value in data set [4] (multiple dosing) was in the range of 1 to 2 days. Besides, the “Tmax, variability range” value in data set [4] (repeated doses) fell in the range of 18 to 240 min. For the same molecule, the “Increase in T1/2 after repeated administration, on an average” value in data set [4] (repeated vs single administration) amounted to 1.4 times. Moreover, the “CGI-S average change (standard error)” value in data set [7] (40 mg, N = 42, average at Week 0 4.24) is −1.34 (0.19); in data set [7] (60 mg, N = 44, average at Week 0 4.28), −1.21 (0.19).
